Data as given in publication PMC3617838 (Journal of Experimental Botany, 2013).

How the values were obtained:
LTP3 (LTP3-GST) = molecular target: T1, LTP3 (LTP3-GST) (Arabidopsis thaliana, UniProt Q9LLR7); experiment: fluorescence titration; assay type: binding
T1 sequence (Q9LLR7 24-115): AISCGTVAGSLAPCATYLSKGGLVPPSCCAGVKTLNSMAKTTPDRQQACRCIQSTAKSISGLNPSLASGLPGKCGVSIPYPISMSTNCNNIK

[1] = molecular target: T2, MYB96-His (Arabidopsis thaliana) (UniProt Q24JK1); experiment: EMSA; conditions: EMSA as in Shi et al. 2012; buffer, salt, pH and temperature not stated
T2 sequence: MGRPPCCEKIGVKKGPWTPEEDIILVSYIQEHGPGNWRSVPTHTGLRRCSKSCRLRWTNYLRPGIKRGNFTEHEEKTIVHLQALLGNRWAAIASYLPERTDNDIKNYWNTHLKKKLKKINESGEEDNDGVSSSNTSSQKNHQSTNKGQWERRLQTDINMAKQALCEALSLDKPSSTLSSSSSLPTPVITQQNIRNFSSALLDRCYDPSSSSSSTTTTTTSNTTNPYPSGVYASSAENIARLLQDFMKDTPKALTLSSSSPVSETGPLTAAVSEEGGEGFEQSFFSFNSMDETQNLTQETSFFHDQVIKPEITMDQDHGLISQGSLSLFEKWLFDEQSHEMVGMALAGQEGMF

Kd (LTP3 (LTP3-GST))	Molecule	binding [1]
9.8 ± 4.7 µM	Cc1ccc(Nc2ccc3cc(S(=O)(=O)O)ccc3c2)cc1 [TNS, 2-p-toluidinonaphthalene-6-sulphonate]	–
–	CCACAGTTAATTAAAAGCAGATGAAAGGTGGTCCAATGGAAAAGGAGAATGTGATTGGGCTAGTTGGGAGAGTTCTGATGTCTAGTGTTGGGTACACGTGTCCGTCAGTTACACA (double strand) [LTP3 promoter XY]	binds
